According to US8299069B2, “2-(2-oxoindoline-3-ylidene)methyl-5-(2-hydroxy-3-morpholin-4-yl-propyl)-6,7-dihydro-1H-pyrrol[3,2-C]pyridine-4(5H)-one compounds and use as protein kinase inhibitors” (Jiangsu Hengrui Medicine Co., Ltd., priority 2007, dated 2012):

Experiments:
[1] = target: recombinant human VEGF-R2 (Homo sapiens, UniProt P35968); test: VEGF-R2 kinase assay (ELISA, DELFIA time-resolved fluorescence)
Method: This assay is used to measure the in vitro kinase activity of recombinant human VEGF-R2 in an enzyme-linked immunosorbent assay (ELISA).
• a. […] Stopping solution: 50 mM EDTA, pH 8.0. • d. DELFIA® Europium-labeled Anti-mouse IgG (PerkinElmer Life Sciences #AD0124). • e. […] DELFIA® Streptavidin coated, 96-well, yellow plate (PerkinElmer Life Sciences #AAAND-0005). • g. Recombinant human VEGFR-2 kinase (supplied in 50 mM Tris-HCl, pH8.0, 100 mM NaCl, 5 mM DTT, 15 mM reduced glutathione and 20% glycerol). […] HTScan™ Tyrosine Kinase Buffer (4×). • 1× Kinase Buffer: • 60 mM HEPES • 5 mM MgCl2 • 5 mM MnCl2 • 3 μM Na3VO4 • l. […] Procedure
The following protocol was used: • 1. […] VEGFR-2 kinase was transferred from −80° C. to ice immediately, and the kinase was thawed on ice. • 4. 2.2 μs VEGFR-2 enzyme was added to enzyme tube. • 5. […] 0.75 ml of DTT/Kinase buffer was transferred to the enzyme tube to prepare 4× reaction cocktail, and 7.5 μl 4× reaction cocktail was added to each assay. • 7. 2 μl ATP (10 mM) was added to 498 μl dH2O, and 7.5 μl was added to each assay. […] The reaction tube was incubated at 25° C. for 30 minutes. • 9. 30 μl/assay stopping solution (50 mM EDTA, pH 8.0) was added to stop the reaction. • 10. 25 μl of each reaction and 75 μl dH2O were transferred to a 96-well streptavidin coated plate, with shaking at room temperature for 60 minutes. • 11. Each well was washed for three times with 200 μl PBS-T buffer. Plate was patted on paper towel to remove excess liquid. • 12. […] The plate was incubated with shaking at room temperature for 60 minutes. • 14. Washing step was carried out as described in step 11. • 15. […] The plate was incubated with shaking at room temperature for 30 minutes. • 17. Each well was washed for five times with 200 μl PBS-T buffer. Plate was patted on paper towel to remove excess liquid. • 18. 100 μl DELFIA® Enhancement Solution was added to each well. • 19. The plate was incubated with shaking at room temperature for 5 minutes. • 20. The fluorescence intensity was detected at wavelength of 615 nm in a time-resolved fluorescence mode on plate reader.
The IC50 value can be calculated from the IRs of compounds at different concentration gradients.

[2] = tested on: HUVEC cell; test: Cell proliferation inhibition assay (SRB) on HUVEC cells highly expressing VEGFR; conditions: Homo sapiens, 72 h, read-out: IC50 (VEGFR/HUVEC)
From the text: The cellular assay described here is used to test anti-angiogenesis and proliferation inhibition activity and effect of the compounds through VEGFR on the cancer cells in vitro. The effect and activity is represented by the IC50 value that kills the cancer cells. The general procedures of the assay are as follows: The Homo sapiens cells that highly expressing VEGFR were chosen and seeded to 96-well cell culture plate at a suitable concentration (e.g., 5000 cells/mL medium). […] Then, the cell culture medium was replaced by fresh one with testing compounds added in it at serial concentrations (general 6 or 7 concentrations). Then the cells were put back to the incubator and cultured for 72 hours continuously. 72 hours later, the treated compounds were assayed for their proliferation status by using Sulforhodamine B (SRB) method. IC50 of compounds on tested cells was calculated by using data of inhibition rate of serial concentrations of the testing compounds.
The following protocol is used to assay the cell toxicity (anti-proliferation activity, which is expressed as IC50 value) of testing compounds of the invention on HUVEC cell: • 1. HUVEC cells were cultured with growth media (DMEM/F12, supplemented with 10% FBS) in 100 mm corning culture plate at 37° C., 5% CO2 till confluency. • 2. HUVEC cells were washed with cold PBS solution, then the cells were harvested by trypsinization and seeded in corning 96-well cell culture plates at a concentration of 50,000 cells/ml, 6 empty wells were left on each plate as plate background. • 3. The cells were cultured in 96-well plates at 37° C., 5% CO2, till 85% confluency. • 4. The compound stock solution was prepared by using DMSO to solve candidate compounds to a concentration of 20 mM. Then DMSO was used to dilute the stock solution to a serial concentration to prepare testing compound solution samples (e.g., 2 mM, 1 mM, 0.2 mM, 20 μM, 2 μM, 0.2 μM). • 5. Cell culture medium (DMEM/F12+10% FBS) was used to dilute the compound solution prepared previously. […] Background absorbance was measured in wells incubated only with growth medium. • 11. […]

Chain of recombinant human VEGF-R2 (P35968 789-1356 limits assumed): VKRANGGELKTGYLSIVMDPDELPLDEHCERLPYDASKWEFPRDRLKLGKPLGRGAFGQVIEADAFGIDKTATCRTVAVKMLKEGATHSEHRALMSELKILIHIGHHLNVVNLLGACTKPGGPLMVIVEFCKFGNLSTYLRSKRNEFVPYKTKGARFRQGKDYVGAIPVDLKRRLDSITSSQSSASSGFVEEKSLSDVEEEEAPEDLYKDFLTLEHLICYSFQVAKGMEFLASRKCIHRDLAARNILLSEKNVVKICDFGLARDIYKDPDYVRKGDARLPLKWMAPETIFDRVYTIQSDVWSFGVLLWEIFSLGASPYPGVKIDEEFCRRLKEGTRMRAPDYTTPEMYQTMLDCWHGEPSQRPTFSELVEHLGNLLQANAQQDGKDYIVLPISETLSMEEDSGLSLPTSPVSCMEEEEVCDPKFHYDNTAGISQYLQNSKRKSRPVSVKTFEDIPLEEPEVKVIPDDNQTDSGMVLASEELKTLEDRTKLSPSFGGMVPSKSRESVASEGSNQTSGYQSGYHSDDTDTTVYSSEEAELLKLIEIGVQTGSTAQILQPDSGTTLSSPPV

Cc1c(/C=C2\C(=O)Nc3cc(NC(=O)C(C)(C)O)c(F)cc32)[nH]c2c1C(=O)N(C[C@H](O)CN1CCOCC1)CC2 [Example 17, (R,Z)-N-{5-Fluoro-3-[5-(2-hydroxy-3-morpholin-4-yl-propyl)-3-methyl-4-oxo-4,5,6,7-tetrahydro-1H-pyrrolo[3,2-c]pyridin-2-ylmethylene]-2-oxo-2,3-dihydro-1H-indol-6-yl}-2-hydroxy-2-methyl-propionamide]
IC50 [1]: 4 nM

Cc1c(/C=C2\C(=O)Nc3cccc(-c4c(F)cccc4F)c32)[nH]c2c1C(=O)N(C[C@@H](O)CN1CCOCC1)CC2 [Example 20, (S,Z)-2-[4-(2,6-Difluoro-phenyl)-2-oxo-1,2-dihydro-indol-3-ylidenemethyl]-5-(2-hydroxy-3-morpholin-4-yl-propyl)-3-methyl-1,5,6,7-tetrahydro-pyrrolo[3,2-c]pyridin-4-one]
IC50 [2]: 10 nM

COCC(=O)Nc1cc2c(cc1F)/C(=C/c1[nH]c3c(c1C)C(=O)N(C[C@H](O)CN1CCOCC1)CC3)C(=O)N2 [Example 16, (R,Z)-N-{5-Fluoro-3-[5-(2-hydroxy-3-morpholin-4-yl-propyl)-3-methyl-4-oxo-4,5,6,7-tetrahydro-1H-pyrrolo[3,2-c]pyridin-2-ylmethylene]-2-oxo-2,3-dihydro-1H-indol-6-yl}-2-methoxy-acetamide]
IC50 [1]: 110 nM

Cc1c(/C=C2\C(=O)Nc3cc(NC(=O)C(C)(C)O)c(F)cc32)[nH]c2c1C(=O)N(C[C@@H](O)CN1CCOCC1)CC2 [Example 11, (S,Z)-N-{5-Fluoro-3[5-(2-hydroxy-3-morpholin-4-yl-propyl)-3-methyl-4-oxo-4,5,6,7-tetrahydro-1H-pyrrolo[3,2-c]pyridin-2-ylmethylene]-2-oxo-2,3-dihydro-1H-indol-6-yl}-2-hydroxy-2-methyl-propionamide]
IC50 [1]: 3 nM

Cc1c(/C=C2\C(=O)Nc3ccc(Cl)cc32)[nH]c2c1C(=O)N(C[C@H](O)CN1CCOCC1)CC2 [Example 2, (R,Z)-2-(5-Chloro-2-oxo-1,2-dihydro-indol-3-ylidenemethyl)-5-(2-hydroxy-3-morpholin-4-yl-propyl)-3-methyl-1,5,6,7-tetrahydro-pyrrolo[3,2-c]pyridin-4-one]
IC50 [2]: 2400 nM

COCC(=O)Nc1cc2c(cc1F)/C(=C/c1[nH]c3c(c1C)C(=O)N(C[C@@H](O)CN1CCOCC1)CC3)C(=O)N2 [Example 13, (S,Z)-N-{5-Fluoro-3-[5-(2-hydroxy-3-morpholin-4-yl-propyl)-3-methyl-4-oxo-4,5,6,7-tetrahydro-1H-pyrrolo[3,2-c]pyridin-2-ylmethylene]-2-oxo-2,3-dihydro-1H-indol-6-yl}-2-methoxy-acetamide]
IC50 [1]: 130 nM

Cc1c(/C=C2\C(=O)Nc3cccc(-c4cccc(F)c4F)c32)[nH]c2c1C(=O)N(C[C@H](O)CN1CCOCC1)CC2 [Example 3, 2-[(Z)-4-(2,3-Difluoro-phenyl)-2-oxo-1,2-dihydro-indol-3-ylidenemethyl]-5-[(R)-2-hydroxy-3-morpholin-4-yl-propyl]-3-methyl-1,5,6,7-tetrahydro-pyrrolo[3,2-c]pyridin-4-one]
IC50 [2]: 840 nM

Cc1c(/C=C2\C(=O)Nc3ccc(Br)cc32)[nH]c2c1C(=O)N(C[C@H](O)CN1CCOCC1)CC2 [Example 4, (R,Z)-2-(5-Bromo-2-oxo-1,2-dihydro-indol-3-ylidenemethyl)-5-(2-hydroxy-3-morpholin-4-yl-propyl)-3-methyl-1,5,6,7-tetrahydro-pyrrolo[3,2-c]pyridin-4-one]
IC50 [1]: 998 nM
